Assay results reported in PubChem BioAssay (NCI).
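Dose response: 5 concentrations. Exposure: 48 h. Format: 96-well plates. Endpoint: linear interpolation; highest concentration if not reached. GI50: concentration for 50% inhibition of growth. TGI: concentration producing complete growth inhibition.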

How the values were obtained:
Test in all cases: DTP human tumour cell line panel, 48 h
[1] = test system: A498 renal
[2] = test system: A549 NSCLC
[3] = test system: HCT-116 colon
[4] = test system: RXF 393 renal
[5] = test system: SK-MEL-5 melanoma
[6] = test system: UACC-62 melanoma
[7] = test system: UO-31 renal
[8] = test system: PC-3 prostate
[9] = test system: T-47D breast
[10] = test system: MCF7 breast

In the case of COC1=CC(C2c3cc4c(cc3[C@@H](Nc3ccc(F)cc3)C3COC(=O)[C@H]23)OCO4)=CC(=O)C1=O (some centres not stated), the TGI [1] is reported as 16 µM, the TGI [2] is reported as 20.4 µM and the TGI [3] is reported as 30.5 µM. For the same molecule, the TGI [4] was > 100 µM, the TGI [5] was > 43.5 µM and the TGI [6] was 20.7 µM. The TGI [7] was 30.2 µM.
In the case of CC(=O)OC12C=C(C)C(C(C)C1)C1C(=O)N(CCN3CCCCC3)C(=O)C12 (configuration not stated), the GI50 [1] is reported as > 50 µM, the TGI [1] is reported as > 50 µM and the GI50 [2] is reported as > 50 µM. The TGI [2] was > 50 µM, the GI50 [3] was > 50 µM and the TGI [3] was > 50 µM. The GI50 [8] was > 50 µM, the TGI [8] was > 50 µM and the GI50 [4] was 19.9 µM. The TGI [4] was > 50 µM, the GI50 [5] was > 50 µM and the TGI [5] was > 50 µM. The GI50 [9] was > 50 µM, the TGI [9] was > 50 µM and the GI50 [6] was > 50 µM. For the same molecule, the TGI [6] was > 50 µM, the GI50 [7] was > 50 µM and the TGI [7] was > 50 µM.
For CCCOC(=O)c1c(C)n(C)c2scc[n+]12, the GI50 [1] was 24 µM, the TGI [1] was 71.9 µM and the GI50 [3] was 35.8 µM. The TGI [3] was > 100 µM, the GI50 [10] was 31.2 µM and the TGI [10] was > 100 µM. For the same molecule, the GI50 [8] was 54.1 µM, the TGI [8] was > 100 µM and the GI50 [5] was 49.1 µM. The TGI [5] was > 100 µM, the GI50 [9] was 38.5 µM and the TGI [9] was > 100 µM. The GI50 [6] was > 100 µM, the TGI [6] was > 100 µM and the GI50 [7] was > 100 µM. The TGI [7] was > 100 µM.
C/C(CN1C(=O)c2ccccc2C1=O)=N\NS(=O)(=O)c1cccc(C(=O)O)c1 was tested, and the TGI [1] was > 100 µM, the TGI [2] was > 100 µM and the TGI [3] was > 100 µM. For the same molecule, the TGI [5] was > 100 µM, the TGI [6] was > 100 µM and the TGI [7] was > 100 µM.
In the case of N#CC(C(=O)CCCC(=O)Nc1ccc(Cl)cc1Cl)c1ccccc1 (configuration not stated), the TGI [2] is reported as > 100 µM, the TGI [3] is reported as > 100 µM and the TGI [4] is reported as > 100 µM. For the same molecule, the TGI [5] was > 100 µM, the TGI [6] was > 100 µM and the TGI [7] was > 100 µM.
With Cc1cccc(C(=O)O)c1C(=O)c1cccc2ccccc12 the TGI [1] was > 100 µM, the TGI [2] was > 100 µM and the TGI [3] was > 100 µM. For the same molecule, the TGI [4] was > 100 µM, the TGI [5] was > 100 µM and the TGI [6] was > 100 µM. The TGI [7] was > 100 µM.
CC1=C(C(=O)Nc2ccccc2)C(c2ccccc2Cl)C(C(=O)Nc2ccccc2)=C(C)N1 was tested, and the TGI [1] was 58.5 µM, the TGI [2] was > 100 µM and the TGI [3] was 47.6 µM. It also gave a TGI [5] of 29.8 µM, a TGI [6] of 27.2 µM and a TGI [7] of 84.4 µM.
COc1ccc(C(=O)c2cc(C)c(OC)c(C)c2)c(OC)c1NC(C)=O gave a GI50 [1] of 0.0228 µM, a TGI [1] of 0.0795 µM and a GI50 [2] of 0.389 µM. The TGI [2] was > 100 µM, the GI50 [3] was 0.439 µM and the TGI [3] was > 100 µM. The GI50 [10] was 0.491 µM, the TGI [10] was > 100 µM and the GI50 [8] was 0.0776 µM. The TGI [8] was > 100 µM, the GI50 [5] was 0.364 µM and the TGI [5] was 7.15 µM. The GI50 [6] was 0.333 µM, the TGI [6] was > 100 µM and the GI50 [7] was 0.167 µM. The TGI [7] was > 63.1 µM.
CCCCCCCCCCCCC(O)c1ccco1 (configuration not stated) showed a GI50 [2] of 25.5 µM, a TGI [2] of 48.1 µM and a GI50 [3] of 22.2 µM. For the same molecule, the TGI [3] was 52.1 µM, the GI50 [10] was 29.4 µM and the TGI [10] was > 100 µM. The GI50 [8] was 16.9 µM, the TGI [8] was 30.7 µM and the GI50 [4] was 24 µM. The TGI [4] was 44.7 µM, the GI50 [5] was 14.8 µM and the TGI [5] was 28.2 µM. For the same molecule, the GI50 [9] was 35.5 µM, the TGI [9] was > 100 µM and the GI50 [6] was 17.7 µM. It also gave a TGI [6] of 32.4 µM, a GI50 [7] of 19 µM and a TGI [7] of 39.7 µM.
For CC(C)N(Cc1ccc(CN(C(=O)CCl)C(C)C)cc1)C(=O)CCl, the GI50 [1] was 1.9 µM, the TGI [1] was 4.27 µM and the GI50 [2] was 2.57 µM. It also gave a TGI [2] of 7.37 µM, a GI50 [3] of 1.65 µM and a TGI [3] of 5.62 µM. The GI50 [10] was 1.7 µM, the TGI [10] was 12.1 µM and the GI50 [8] was 2.27 µM. The TGI [8] was 5.48 µM, the GI50 [4] was 1.33 µM and the TGI [4] was 2.85 µM. It also gave a GI50 [5] of 0.451 µM, a TGI [5] of 1.81 µM and a GI50 [6] of 1.04 µM. The TGI [6] was 2.97 µM, the GI50 [7] was 1.76 µM and the TGI [7] was 3.21 µM.
For COCCOc1cc(C)cc(/C=C(C)/C=C/C2=C(C)CCCC2(C)C)n1, the TGI [1] was > 100 µM, the TGI [2] was > 100 µM and the TGI [3] was > 100 µM. The TGI [4] was > 100 µM, the TGI [5] was 39.8 µM and the TGI [6] was > 100 µM. For the same molecule, the TGI [7] was > 100 µM.
For CC(C)c1cc(C(C)C)c(S(=O)(=O)N=[N+]=[N-])c(C(C)C)c1, the TGI [2] was > 100 µM, the TGI [3] was > 100 µM and the TGI [4] was > 100 µM. The TGI [5] was > 100 µM, the TGI [6] was > 100 µM and the TGI [7] was > 100 µM.
With O=C(O)CCNS(=O)(=O)c1ccc2ccccc2c1 the TGI [1] was > 100 µM, the TGI [2] was > 100 µM and the TGI [5] was > 100 µM. The TGI [6] was > 100 µM and the TGI [7] was > 100 µM.
With O=C(C(=O)n1ncc(Cl)c(Cl)c1=O)n1ncc(Cl)c(Cl)c1=O the TGI [1] was > 100 µM, the TGI [2] was > 100 µM and the TGI [3] was 29.5 µM. For the same molecule, the TGI [5] was 97.2 µM, the TGI [6] was 32.2 µM and the TGI [7] was > 100 µM.
With CCC[CH2][Sn]([CH2]CCC)([S]C#N)[S]C#N the GI50 [2] was 3.78 µM, the TGI [2] was 11.9 µM and the GI50 [3] was 1.45 µM. The TGI [3] was 3.11 µM, the GI50 [4] was 0.342 µM and the TGI [4] was 1.33 µM. The GI50 [5] was 0.483 µM, the TGI [5] was 1.76 µM and the GI50 [6] was 0.58 µM. The TGI [6] was 2 µM, the GI50 [7] was 1.61 µM and the TGI [7] was 2.98 µM.
For COc1ccc2nc(C(=O)c3ccccc3)c(C)cc2c1, the TGI [1] was 10.3 µM, the TGI [2] was > 70 µM and the TGI [3] was > 40.7 µM. For the same molecule, the TGI [4] was 17.3 µM, the TGI [5] was 12.3 µM and the TGI [6] was > 100 µM. For the same molecule, the TGI [7] was > 57.7 µM.
In the case of Cc1c(C(=O)O)n(C)c(=O)n(C)c1=O, the TGI [1] is reported as > 100 µM, the TGI [2] is reported as > 100 µM and the TGI [3] is reported as > 100 µM. For the same molecule, the TGI [4] was > 100 µM, the TGI [5] was > 100 µM and the TGI [6] was > 100 µM. The TGI [7] was > 100 µM.
Work on COc1ccc(C2=Nc3ccccc3SC(C)C2)cc1OC (configuration not stated) yielded a TGI [1] of 39.8 µM, a TGI [3] of 32.1 µM and a TGI [5] of 37 µM. The TGI [6] was 32.4 µM and the TGI [7] was 32.4 µM.
Molecule CN(C)CCCn1c(=O)c2ccccc2c2cnc3[nH]ccc3c21 has a GI50 [1] of 1.03 µM, a TGI [1] of 2.37 µM and a GI50 [3] of 0.486 µM. For the same molecule, the TGI [3] was 10.3 µM, the GI50 [10] was 2.74 µM and the TGI [10] was 11.3 µM. The GI50 [8] was 1.69 µM, the TGI [8] was 11.1 µM and the GI50 [4] was 1.4 µM. For the same molecule, the TGI [4] was 3.99 µM, the GI50 [5] was 1.77 µM and the TGI [5] was 3.51 µM. The GI50 [9] was 2.5 µM, the TGI [9] was 7.42 µM and the GI50 [6] was 1.59 µM. It also gave a TGI [6] of 2.97 µM.
Cc1ccc(NC(=O)C(=O)CC(=O)c2c(C)n([O-])c3ccccc3[n+]2=O)cc1C was tested, and the TGI [1] was > 100 µM, the TGI [2] was > 100 µM and the TGI [3] was > 100 µM. For the same molecule, the TGI [4] was > 100 µM, the TGI [5] was > 100 µM and the TGI [6] was > 100 µM. The TGI [7] was > 100 µM.
Work on O=C(NNc1ccc(Cl)cc1)C1CCC(CNS(=O)(=O)c2ccccc2Cl)CC1 (configuration not stated) yielded a GI50 [1] of 31.3 µM, a TGI [1] of 74.9 µM and a GI50 [2] of 8.99 µM. The TGI [2] was > 100 µM, the GI50 [10] was 4.88 µM and the TGI [10] was > 100 µM. The GI50 [8] was 3.69 µM, the TGI [8] was 34.7 µM and the GI50 [4] was 24.5 µM. For the same molecule, the TGI [4] was 65.7 µM, the GI50 [5] was 18.4 µM and the TGI [5] was 39.2 µM. For the same molecule, the GI50 [6] was 2.81 µM, the TGI [6] was 9.64 µM and the GI50 [7] was 56.2 µM. The TGI [7] was > 100 µM.
